The values below come from patent US7928093B2, “Amino-propanol derivatives” (Novartis AG, priority 2004, dated 2011).

SMILES strings stand for the structures.

Experiment [1] deals with peripheral blood lymphocytes. Briefly: Blood lymphocyte depletion in vivo. The following applies: rats, p.o., after 6 h. The method, then: B. In Vivo: Blood Lymphocyte Depletion
A compound of formula I or the vehicle is administered orally by gavage to rats. Tail blood for hematological monitoring is obtained on day −1 to give the baseline individual values, and at 2, 6, 24, 48 and 72 hours after application. In this assay, the compounds of formula I deplete peripheral blood lymphocytes when administered at a dose of 0.03 to 3 mg/kg. For example, following results are obtained: depletion of peripheral blood lymphocytes by more than 50%.

Experiment [2] deals with T1, human S1P receptor EDG-8 (S1P5) (Homo sapiens, UniProt Q9H228).
T1 construct: expressed in transfected cells
T1 sequence (Q9H228 whole entry): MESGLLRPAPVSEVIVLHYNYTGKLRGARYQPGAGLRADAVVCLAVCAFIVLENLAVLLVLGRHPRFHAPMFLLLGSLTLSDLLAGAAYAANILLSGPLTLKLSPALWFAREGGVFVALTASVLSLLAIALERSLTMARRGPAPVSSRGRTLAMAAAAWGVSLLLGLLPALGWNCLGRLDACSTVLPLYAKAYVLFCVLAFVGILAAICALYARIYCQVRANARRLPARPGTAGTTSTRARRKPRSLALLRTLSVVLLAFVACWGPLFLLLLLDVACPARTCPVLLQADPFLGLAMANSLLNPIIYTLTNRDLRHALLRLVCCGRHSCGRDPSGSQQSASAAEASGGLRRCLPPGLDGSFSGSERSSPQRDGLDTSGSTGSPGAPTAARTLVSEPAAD
In words: S1P receptor profiling, GTP[γ-35S] binding SPA. The following applies: for EC50: membranes of transfected CHO or RH7777 cells. Also noted: key to S1P5 mode of action: Agon = agonist. The experiment is classed as biochemical. The method, then:
(§1) Sphingosine-1-phosphate (S1P) Receptor Profiling
(§2) Agonist activities of compounds are tested on the human S1P receptors EDG-1 (S1P1), EDG-3 (S1P3), EDG-5 (S1P2), EDG-6 (S1P4) and EDG-8 (S1P5). […] The assay technology used is SPA (scintillation proximity based assay). Briefly, DMSO dissolved compounds are serially diluted and added to SPA-bead (Amersham-Pharmacia) immobilised SIP receptor expressing membrane protein (10-20 μg/well) in the presence of 50 mM Hepes, 100 mM NaCl, 10 mM MgCl2, 10 μM GDP, 0.1% fat free BSA and 0.2 nM GTP [γ-^35S] (1200 Ci/mmol). After incubation in 96 well microtiterplates at RT for 120 min, unbound GTP [γ-^35S] is separated by a centrifugation step. Luminescence of SPA beads triggered by membrane bound GTP [γ-^35S] is quantified with a TOPcount plate reader (Packard). EC50s are calculated using standard curve fitting software. In this assay, the compounds of formula I have a binding affinity to S1P1 receptor <50 nM.
In general terms: GTPγS resists hydrolysis and so accumulates on activated G proteins.

Experiment [3] addresses T2, human S1P receptor EDG-3 (S1P3) (Homo sapiens, UniProt Q99500).
T2 construct: expressed in transfected cells
In words: S1P receptor profiling, GTP[γ-35S] binding SPA. The following applies: for EC50: membranes of transfected CHO or RH7777 cells. Also noted: key to S1P3 mode of action: Agon = agonist. The experiment is classed as biochemical. The procedure:
as §1, §2

The target in experiment [4] is T3, human S1P receptor EDG-6 (S1P4) (Homo sapiens, UniProt O95977).
T3 construct: expressed in transfected cells
T3 sequence (O95977 1-384): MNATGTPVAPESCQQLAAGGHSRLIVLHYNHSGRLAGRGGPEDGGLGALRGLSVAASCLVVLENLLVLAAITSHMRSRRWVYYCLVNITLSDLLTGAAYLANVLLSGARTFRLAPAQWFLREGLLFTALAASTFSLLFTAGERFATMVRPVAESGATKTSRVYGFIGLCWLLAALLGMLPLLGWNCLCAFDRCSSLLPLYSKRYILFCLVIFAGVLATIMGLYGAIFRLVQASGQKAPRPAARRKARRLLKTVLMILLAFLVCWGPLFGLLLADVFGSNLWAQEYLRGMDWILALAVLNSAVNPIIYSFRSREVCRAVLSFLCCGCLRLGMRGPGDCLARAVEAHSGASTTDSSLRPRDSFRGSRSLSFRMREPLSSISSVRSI
In words: S1P receptor profiling, GTP[γ-35S] binding SPA. The experiment is classed as biochemical. Also noted: key to S1P4 mode of action: Agon = agonist. The following applies: for EC50: membranes of transfected CHO or RH7777 cells. The procedure: as §1, §2

Experiment [5] has as its target T4, human S1P receptor EDG-1 (S1P1) (Homo sapiens, UniProt P21453).
T4 construct: expressed in transfected cells
In words: S1P receptor profiling, GTP[γ-35S] binding SPA. Also noted: key to S1P1 mode of action: Agon = agonist. The experiment is classed as biochemical. The following applies: for EC50: membranes of transfected CHO or RH7777 cells. The procedure:
as §1, §2

T4 sequence (P21453 whole entry): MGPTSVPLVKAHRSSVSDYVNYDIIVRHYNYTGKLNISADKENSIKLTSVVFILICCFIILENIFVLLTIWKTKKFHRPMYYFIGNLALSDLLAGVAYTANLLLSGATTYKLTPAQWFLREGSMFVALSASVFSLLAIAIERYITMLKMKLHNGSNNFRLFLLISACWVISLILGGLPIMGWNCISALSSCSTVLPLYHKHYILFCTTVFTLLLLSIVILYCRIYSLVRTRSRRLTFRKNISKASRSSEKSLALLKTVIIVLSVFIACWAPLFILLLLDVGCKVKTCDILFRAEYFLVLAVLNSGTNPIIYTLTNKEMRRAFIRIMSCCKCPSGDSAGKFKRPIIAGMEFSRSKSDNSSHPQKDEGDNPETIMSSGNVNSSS
T2 sequence (Q99500 whole entry): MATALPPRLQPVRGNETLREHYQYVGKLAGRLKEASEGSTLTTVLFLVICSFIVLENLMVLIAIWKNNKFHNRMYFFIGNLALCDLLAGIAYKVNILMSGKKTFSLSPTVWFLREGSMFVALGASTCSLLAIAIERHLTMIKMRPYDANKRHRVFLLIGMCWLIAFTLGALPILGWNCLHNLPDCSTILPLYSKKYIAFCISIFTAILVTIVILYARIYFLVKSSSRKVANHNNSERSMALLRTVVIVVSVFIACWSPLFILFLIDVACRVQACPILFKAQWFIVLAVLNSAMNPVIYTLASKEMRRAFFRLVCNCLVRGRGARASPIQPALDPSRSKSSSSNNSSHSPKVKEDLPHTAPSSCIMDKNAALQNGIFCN

Turning to `CCCCCCCOc1ccc(CC[C@@](C)(N)[C@@H](C)O)cc1` [Example 1, (2R,3R)-3-Amino-5-(4-heptyloxy-phenyl)-3-methyl-pentan-2-ol], the “dose giving depletion of peripheral blood lymphocytes by more than 50%” value (from here on “dose giving depletion … by more than 50%”) in experiment [1] is reported as 0.07 mg/kg.
As to `CCCCCOc1ccc2cc(CC[C@@](C)(N)[C@@H](C)O)ccc2c1` [Example 12, (2R,3R)-3-Amino-5-(6-pentyloxy-naphthalen-2-yl)-3-methyl-pentan-2-ol], the “dose giving depletion … by more than 50%” value in experiment [1] is listed as 0.4 mg/kg.
With `C[C@H](O)[C@](C)(N)CCc1ccc(OCCCCCc2ccccc2)cc1` [Example 13, (2S,3R)-3-Amino-3-methyl-5-[4-(5-phenyl-pentyloxy)-phenyl]-pentan-2-ol], the “dose giving depletion … by more than 50%” value in experiment [1] was 0.5 mg/kg.
For the compound `C[C@@H](O)[C@](C)(N)CCc1ccc(OCCCCc2ccccc2)cc1` [Example 14, (2R,3R)-3-Amino-3-methyl-5-[4-(4-phenyl-butoxy)-phenyl]-pentan-2-ol], the “dose giving depletion … by more than 50%” value in experiment [1] is recorded as 0.1 mg/kg.
Take `C[C@H](O)[C@](C)(N)CCc1ccc(OCCCCc2ccccc2)cc1` [Example 15, (2S,3R)-3-Amino-3-methyl-5-[4-(4-phenyl-butoxy)-phenyl]-pentan-2-ol]: in experiment [1], the “dose giving depletion … by more than 50%” value is 0.6 mg/kg.
Regarding `C[C@@H](O)[C@](C)(N)CCc1ccc(OCCc2ccc(-c3ccccc3)cc2)cc1` [Example 17, (2R,3R)-3-Amino-5-[4-(2-biphenyl-4-yl-ethoxy)-phenyl]-3-methyl-pentan-2-ol], the “dose giving depletion … by more than 50%” value in experiment [1] is 0.2 mg/kg.
`CCCCCCCOc1ccc(CC[C@@](C)(N)[C@@H](C)OP(=O)(O)O)cc1` [Example 18, Phosphoric acid mono-[(1R,2R)-2-amino-4-(4-heptyloxy-phenyl)-1,2-dimethyl-butyl]ester]: in experiment [2], the “S1P5 mode of action” value was “Agon” and the EC50 (in general, the concentration giving half of the maximal effect) came to 0.74 nM. For the same compound, in experiment [3], the “S1P3 mode of action” value was “Agon” and the EC50 came out at 4.6 nM. Further, in experiment [4], the “S1P4 mode of action” value was “Agon” and the response was half-maximal at 0.7 nM (EC50). Moreover, in experiment [5], the “S1P1 mode of action” value was “Agon” and the EC50 stood at 0.51 nM.
For the compound `CCCCCCCOc1ccc(CC[C@@](C)(N)[C@H](C)OP(=O)(O)O)cc1` [Example 19, Phosphoric acid mono-[(1S,2R)-2-amino-4-(4-heptyloxy-phenyl)-1,2-dimethyl-butyl]ester], in experiment [2], the “S1P5 mode of action” value was “Agon” and the EC50 amounted to 0.15 nM. Further, in experiment [3], the “S1P3 mode of action” value is on record as “Agon” and the EC50 was determined as 1.4 nM. Also, in experiment [4], the “S1P4 mode of action” value is “Agon” and the response was half-maximal at 0.4 nM (EC50). In experiment [5], the “S1P1 mode of action” value is given as “Agon” and the EC50 is 0.07 nM.
As to `CCCCCOc1ccc2cc(CC[C@@](C)(N)[C@@H](C)OP(=O)(O)O)ccc2c1` [Example 20, Phosphoric acid mono-[(1R,2R)-2-amino-1,2-dimethyl-4-(6-pentyloxy-naphthalen-2-yl)-butyl]ester], in experiment [2], the “S1P5 mode of action” value is listed as “Agon” and it took 0.29 nM to reach a half-maximal effect (EC50). In experiment [3], the “S1P3 mode of action” value is recorded as “Agon” and the EC50 was 8.5 nM. In experiment [4], the “S1P4 mode of action” value is given as “Agon” and the EC50 was determined as 0.67 nM. Besides, in experiment [5], the “S1P1 mode of action” value was “Agon” and a half-maximal effect (EC50) was put at 0.13 nM.
